From patent US20120183536A1, “METHODS OF USING CORTICOTROPIN-RELEASING FACTOR FOR THE TREATMENT OF CANCER” (priority 2009, published 2012)
Where two headings read alike, the source gives them in different places.

Assays:
[1] = tested on: U87 Fluc brain tumor
From the text: The results were obtained with SCID mice bearing brain tumors produced by injection with the human glioblastoma cell line U87 Flue. The U87 Flue cell line was created by stably transducing U87 cells with a lentiviral construct containing the luc gene.

[2] = tested on: Colo205 human colon tumor cells; experiment: Colo205 human colon tumor xenograft in nu/nu mice, tumor volume; format: in vivo
Procedure: In one study, 8-12 week old female nu/nu mice were injected with 1×10^6 Colo205 human colon tumor cells subcutaneously. Once tumors developed and reached an average size of 100-150 mg, mice received administration of: (1) saline (control) (twice daily, subcutaneous); (2) CRF (100 μg/kg) (twice daily, subcutaneous); (3) CRF (200 μg/kg) (twice daily, subcutaneous); (4) bevacizumab (Avastin®) (5 mg/kg) (twice weekly, intraperitoneal); or (5) CRF (200 μg/kg) (twice daily, subcutaneous) and bevacizumab (Avastin®) (5 mg/kg) (twice weekly, intraperitoneal) (FIG. 11A). Body weight and tumor volume were measured twice a week until the endpoint of the experiment, i.e., the earlier of either 60 days or a tumor volume of 1000 mm^3.

[3] = tested on: MX-1 human breast carcinoma; experiment: MX-1 human breast carcinoma xenograft in nu/nu mice, tumor volume; format: in vivo
Procedure: (§1) In another study, 8-12 week old female nu/nu mice were injected with 1 mm^3 tumor fragments of MX-1 human breast carcinoma subcutaneously. Once tumors developed and reached an average size of 80-120 mg, mice received administration of: (1) saline (control) (twice daily, subcutaneous); (2) CRF (100 μg/kg) (twice daily, subcutaneous); (3) CRF (200 μg/kg) (twice daily, subcutaneous); (4) bevacizumab (Avastin®) (5 mg/kg) (twice weekly, intraperitoneal); or (5) CRF (200 μg/kg) (twice daily, subcutaneous) and bevacizumab (Avastin®) (5 mg/kg) (twice weekly, intraperitoneal) (FIG. 13A). Body weight and tumor volume were measured twice a week until the endpoint of the experiment, i.e., the earlier of either 60 days or achieving a tumor weight of 1.5 g.).

[4] = tested on: human Non-Small Cell Lung Carcinoma (NSCLC) tumor cell lines; experiment: human Non-Small Cell Lung Carcinoma xenograft in nu/nu mice, tumor volume; format: in vivo
Procedure: as §1, with “a second” for “another”, “of” for “of MX-1”, “Non-Small Cell Lung Carcinoma (NSCLC) tumor cell lines” for “breast carcinoma”, “12A).” for “13A).”, “2” for “1.5”

[5] = tested on: brain tumor in metastatic patients; experiment: Clinical study: metastatic patients, brain tumor size by MRI and survival; format: in vivo, human; details: 2 mg/day s.c.
[6] = tested on: malignant brain tumor; experiment: Clinical study: patients with malignant brain tumor, tumor size by MRI and survival; format: in vivo, human
Procedure: Patients with malignant brain tumor were treated with 2 mg/day (1 mg dose, twice daily) of either human CRF subcutaneously. […] Additionally, of the 30 patients who had received treatment for at least 6 months, 10 experienced a decrease in tumor size.

[7] = bevacizumab 5 mg/kg twice weekly, intraperitoneal
[8] = of the 3 metastatic patients of FIG. 10
[9] = low dose of CRF, 30 μg/kg s.c. twice daily
[10] = CRF 100 or 200 μg/kg twice daily, subcutaneous

O=NN(CCCl)C(=O)NCCCl [BiCNU, carmustine, reference compound]
brain tumor progression (photon emission) ([1]; BiCNU 20 mg/kg intraperitoneally 5 days/week): continued to grow

bevacizumab (Avastin®): angiogenesis inhibitor bevacizumab (Avastin®) [reference compound]
tumor volume compared to control [2, 7]: reduction in tumor volume | tumor volume compared to control [3, 7]: reduction in tumor volume | tumor volume compared to control [4, 7]: reduction in tumor volume

Cn1nnc2c(C(N)=O)ncn2c1=O [TMZ, temozolomide, reference compound]
mice still alive at the end of the 80-day study period ([1]; TMZ 40 mg/kg intraperitoneally 5 days/week): 40%

corticorelin acetate [CRF]
response of metastatic patients to treatment [5]: responded very favorably | metastatic patients exhibiting survival beyond the projected 3-6 months [5, 8]: 3 patients | metastatic patients showing a reduction in tumor size at the last timepoint measured [5, 8]: 2 patients | brain tumor progression (photon emission) [1, 9]: did not progress or progressed more slowly | mean survival time (comparison) [1, 9]: between mice, that were administered a high dose of CRF, and mice that had received no treatment or were administered dexamethasone | mice still alive at the end of the 80-day study period [1, 9]: 60% | survival compared with untreated, dexamethasone or chemotherapeutic agents [1, 9]: survived longer | tumor volume compared to control [2, 10]: reduction in tumor volume | survival after CRF treatment, some patients ([6]; FIGS. 8 and 9): 1-2 years | patients exhibiting a reduction in tumor size at the last time point measured ([6]; of the 10 patients of FIG. 9, 2 mg/day s.c.): 8 patients | patients exhibiting a reduction in tumor size ([6]; of the 20 patients of FIG. 8, 2 mg/day (1 mg twice daily) s.c.): 6 patients | patients exhibiting a maintenance in tumor size ([6]; of the 20 patients of FIG. 8, 2 mg/day s.c.): 5 patients | patients exhibiting a reduction in tumor size by over 50% ([6]; of the 20 patients of FIG. 8, after 9 months of treatment, 2 mg/day s.c.): 3 patients | patients experiencing a decrease in tumor size ([6]; of the 30 patients treated for at least 6 months, 2 mg/day s.c.): 10 patients | survival of the overwhelming majority of patients ([6]; projected survival 3-6 months, FIGS. 8 and 9): live well beyond the projected 3-6 months | reduction in tumor size ([6]; two of the patients, 2 mg/day s.c.): around 90% | tumor volume compared to control [3, 10]: reduction in tumor volume | tumor volume compared to control [4, 10]: reduction in tumor volume
